Type in all cases: in vivo
In series [1] the test system is hairless SKH1-E mice. In words: Epidermal hyperplasia on dorsal skin (marker of retinoid activity), 14-day topical application. The conditions noted are these: for epidermal hyperplasia grading, average: dorsal skin, scale of 0=none to 5=marked. On the procedure:
(§1) UAB30, 4Me-UAB30 and UAB111 at 0.1% and 0.3%, tazarotene at 0.1% and vehicle were applied topically on approximately 8 cm2 (2×4 cm) of the dorsal skin (100 μL) and on the right ear (20 μL).
(§2) The test compounds were UAB30, 4Me-UAB30 and UAB111. Tazarotene (0.1% cream) was purchased by Ricerca Taiwan Ltd. The three compounds at 0.1% and 0.3%, Tazarotene (0.1% cream) and vehicle (70% ethanol/30% propylene glycol) were each administered topically on the back (100 μL) and on the right ear (20 μL) once daily for two weeks.
(§3) Female SKH1-E hairless mice (Crl:SKH1-Hrhr) weighing 22±2 g were used. The animals were divided into groups of 5 each. Once a day, 100 μl of vehicle, tazarotene, and test articles were applied on the back with a micropipette and smeared evenly with gloved finger on approximately 8 cm2 (2×4 cm) of the dorsal skin; 20 μl was applied to the right ear. The tested animals were treated for two consecutive weeks. Body weight was monitored twice a week.
(§4) Epidermal hyperplasia on the dorsal skin was used as a marker of retinoid activity. For histological evaluation, mice were sacrificed on day 15. The dorsal skin was dissected and stretched to the natural size on the filter. Punch biopsies (ED 8 mm) were obtained, fixed in 10% buffered formalin, and embedded in paraffin. Five micro thick sections were cut, stained with H&E, and a representative section of each biopsy was selected for histological evaluation.
(§5) For histological evaluation, the dorsal skin was dissected and stretched to the natural size on the filter. Punch biopsies (ED 8 mm) were obtained, fixed in 10% buffered formalin, and embedded in paraffin. Five micro thick sections were cut, stained with H&E, and a representative section of each biopsy was selected for histological evaluation. Right ear was harvested on day 15 for measurements of myeloperoxidase activity by mouse MPO ELISA kit, a measure of neutrophil infiltrates.

In series [2] the test system is hairless SKH1-E mice. In words: Skin irritation on dorsal skin (erythema, desquamation, lesions/abrasion), visual score. The settings on record: for Mean skin irritation score: scale of 0-4. On the procedure:
as §1, §2, §3
Erythema, desquamation (skin flaking), and skin lesions/abrasion on dorsal skin were assessed visually in individual animals at the end of a 2-week treatment and scored on a scale of 0 to 4+, with 4+being maximal. • 0: Normal • 1+: Mild erythema • 2+: Moderate erythema • 3+: Severe erythema/Desquamation • 4+: Lesions/abrasion.

The test system of series [3] is hairless SKH1-E mice. In words: Ear myeloperoxidase (MPO) by mouse MPO ELISA kit, measure of neutrophil infiltrates. The settings on record: harvested day 15. On the procedure: as §1, §2, §3, §5
Series [4] concerns hairless SKH1-E mice. In words: Histopathology of dorsal skin: hyperkeratosis/serocellular crust, utriculus formation, sebaceous gland hyperplasia. The conditions noted are these: of 5 mice per group. Here is the method:
as §3, §4, §5

Setting [5] is: 0.1% topical once daily for 14 days.
Where [6] appears, read: 0.1% topical 20 μL on right ear for 14 days.

The structures appear in SMILES notation.

In the case of `CCOC(=O)c1ccc(C#Cc2ccc3c(c2)C(C)(C)CCS3)nc1` [Tazarotene, reference compound], in series [1] (setting [5]), the “epidermal hyperplasia grading, average” value is on record as 2. For the same compound, the “Mean skin irritation score” value in series [2] (0.1% topical for 14 days) amounted to 3. Further, in series [3] (setting [6]), the “ear Myeloperoxidase (MPO), marker of neutrophil infiltration” value was “marked increase”.

Consider `CC(=C/C=C/C(C)=C/C(=O)O)/C=C1\CCCc2ccccc21` [UAB30, (2E,4E,6E,8E)-8-(3′,4′-Dihydro-1′(2′H)-naphthalen-1′-ylidene)3,7-dimethyl-2,4,6-octatrienoic acid], for which the results for the “epidermal hyperplasia grading, average” value in series [1] (setting [5]) and in series [1] (0.3% topical once daily for 14 days) were 1.8 and 2, respectively. For the same compound, the “incidence of epidermal hyperplasia compared to 0.1% Tazarotene” value in series [1] (14-day topical, histopathology, concentration not specified (0.1% and 0.3% groups)) is given as “comparable incidence”. The figures for the “Hyperkeratosis and/or serocellular crust, number of mice affected” value in series [4] (0.1% topical for 14 days) and in series [4] (0.3% topical for 14 days) were 1 and “not reported”, respectively. Further, the “skin irritation, observation in words” value in series [2] (0.1% topical for 14 days, groups of 5) is “did not cause any irritation”. For the same compound, the “Mean skin irritation score” value in series [2] (0.3% topical for 14 days) was 1. In addition, the “ear Myeloperoxidase (MPO), marker of neutrophil infiltration” value in series [3] (setting [6]) and in series [3] (0.3% topical 20 μL on right ear for 14 days) was “no effect” in each case.

Source of the values: patent US8475775B1, “Retinoids and use thereof” (The UAB Research Foundation, priority 2012, dated 2013).
